The source of these data is patent US20200407712A1, “ARRAY-BASED CYCLIC PEPTIDE LIBRARIES” (HealthTell Inc., priority 2018, published 2020).

For experiment [1], the system named is Ferredoxin. The experiment is described as follows: Biotinylated ferredoxin counter screen on linear and lactam constrained peptide microarrays. Particulars: 10.0 nM biotinylated protein, detected with Streptavidin-Alexa Fluor 555; for Ferredoxin Lactam, log 10 transformed median intensity: lactam constrained library peptide; for Ferredoxin Linear, log 10 transformed median intensity: linear library peptide. The class given is binding. The text has this: (§1) Diaphorase is NAD(P)H dehydrogenase (UniProtKB: P15559) encoded by the NQO1 gene. Diaphorase has utility as a model enzyme; for which peptide based synthetic affinity agents to diaphorase are required. A 3.3 million feature peptide array was used to identify potential binding partner peptides for diaphorase. Ferredoxin NADP+ Reductase (FNR) and Ferredoxin are included as counter screens for a specific application, while immunoglobulin depleted human serum (Non-Immunoglobulin Serum Components or NISC) was used as a complex mixture to control for generally sticky peptides.
(§2) Peptide arrays were prepared for protein binding by pretreating the arrays in PBST for 30 min at […]. Direct labeled diaphorase (Alexa Fluor™ 555), direct labeled FNR (Alexa Fluor™ 555) and biotinylated ferredoxin were applied to the arrays at 1.0 and 10.0 nM along with direct labeled NISC at 0.001 mg/mL for 1 hr at 37° C. Arrays were washed 3× with PBST and Streptavidin-Alexa Fluor™ 555 was applied to the biotinylated ferredoxin and streptavidin alone arrays. All other arrays received PBST and were incubated for 1 hr at 37° C. Arrays were washed with PBST and p53Ab1-Alexa Fluor™ 647 applied to all arrays to illuminate the edge fiducials for 10 min at 37° C. Following the final incubation arrays were washed in PBST and water, dried and imaged on the ImageXpress ([…]). Triplicate arrays were used for the subsequent analysis except for when rejection of an array was necessary due to the presence of artifacts. Data were analyzed using a custom R script.

For experiment [2], the target named is T1, human diaphorase (NQO1) (Homo sapiens, UniProt P15559).
T1 construct: purchased SigmaAldrich
T1 sequence (P15559 whole entry): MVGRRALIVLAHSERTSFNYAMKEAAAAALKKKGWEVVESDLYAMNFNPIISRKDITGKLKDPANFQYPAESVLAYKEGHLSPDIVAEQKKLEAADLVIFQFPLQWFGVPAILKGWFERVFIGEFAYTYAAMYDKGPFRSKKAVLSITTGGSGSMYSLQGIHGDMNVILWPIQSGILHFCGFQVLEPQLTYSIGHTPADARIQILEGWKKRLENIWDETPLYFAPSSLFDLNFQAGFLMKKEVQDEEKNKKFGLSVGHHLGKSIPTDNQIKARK
The experiment is described as follows: Alexa Fluor 555-diaphorase binding to linear and lactam constrained peptide microarrays. Particulars: 10.0 nM protein applied to the array; for Diaphorase Lactam, log 10 transformed median intensity: lactam constrained library peptide; for Diaphorase Linear, log 10 transformed median intensity: linear library peptide.
Source text: as §1
Two wafers from the same synthesis batch were obtained where one wafer was prepared with the lactam chemistry and constrained into a cyclized form. The degree of cyclization was confirmed using the biotinylation assay described in Examples 9, 17, and 19.
as §2
Intensities plotted are the log 10 transformed median intensity from replicate arrays. Coloring of the points represents the density of features at that intensity using a gray-scale map. Light grey represents areas of low peptide numbers while black represents the intensity having the highest number of peptides. The diagonal line is equivalence line. […] CLUSTAL sequence alignment (FIG. 27B) of the sequences indicated similarities in amino acid composition. Highlighted amino acids are conserved in over 60% of the peptides for that position or are a chemically similar amino acid (ie: F and Y).
The sequences contain similar amino acid usage. Four peptides having the highest degree of cyclization in the quality control assay were identified and binding intensities compared to other library peptides having one or two amino acid substitutions as shown in FIG. 28. Substitutional analysis provides confidence in the array data by indicating which residues are important for binding. Dark grey boxes highlight indicate a residue conserved in more than 60% of the peptides. Light grey boxes highlight indicate chemically similar amino acids to the conserved residue. RFI is the intensity is the median replicate log 10 intensity for the 10.0 nM Diaphorase.

The target in experiment [3] is Streptavidin (Streptomyces avidinii, UniProt P22629). The experiment is described as follows: Streptavidin-Alexa Fluor 555 alone on linear and lactam constrained peptide microarrays. The class given is binding. The following applies: for Streptavidin Lactam, log 10 transformed median intensity: lactam constrained library peptide; for Streptavidin Linear, log 10 transformed median intensity: linear library peptide. The method, then:
as §2

In experiment [4] the test system is Non-Immunoglobulin Serum Components (NISC). The experiment is described as follows: NISC counter screen on linear and lactam constrained peptide microarrays. The format is binding, human. Particulars: 0.001 mg/mL NISC applied to the array; for NISC Lactam, log 10 transformed median intensity: lactam constrained library peptide; for NISC Linear, log 10 transformed median intensity: linear library peptide.
Source text: as §1, §2
Peptides were also selected based on the difference in log 10 transformed intensities between diaphorase and NISC as the counter screen agent (LFGdiaphorase minus LFGNISC). Intensities for 10.0 nM diaphorase and 0.001 mg/mL NISC are shown in FIG. 29A where intensities plotted are the log 10 transformed median intensity from replicate arrays. Coloring of the points represents the density of features at that intensity using a grey colorscale. Light grey represents areas of low peptide numbers while black represents the intensity having the highest number of peptides. The diagonal line is equivalence line. Selectivity vs NISC was not dependent on cyclization as diaphorase also bound the linear forms for some peptides (Table 4). Three peptides having the highest degree of cyclization in the quality control assay were identified and binding intensities compared to other library peptides having one or two amino acid substitutions (FIG. 30) Each CLUSTAL alignment contains the library peptides having a maximum of two substitutions to the parent peptide. Dark grey highlights indicate a residue conserved in more than 60% of the peptides. Light grey highlights indicate chemically similar amino acids to the conserved residue. The amino acid usage is indicated in the sequence logo above the alignment. Substitutional analysis provides confidence in the array data by indicating which residues are important for binding.

For experiment [5], the system named is Ferredoxin NADP+ Reductase (FNR). The experiment is described as follows: FNR counter screen on linear and lactam constrained peptide microarrays. The following applies: 10.0 nM protein applied to the array; for FNR Lactam, log 10 transformed median intensity: lactam constrained library peptide; for FNR Linear, log 10 transformed median intensity: linear library peptide. The class given is binding.
Source text: as §1, §2

Sequence of Streptavidin (P22629 25-183, species assumed): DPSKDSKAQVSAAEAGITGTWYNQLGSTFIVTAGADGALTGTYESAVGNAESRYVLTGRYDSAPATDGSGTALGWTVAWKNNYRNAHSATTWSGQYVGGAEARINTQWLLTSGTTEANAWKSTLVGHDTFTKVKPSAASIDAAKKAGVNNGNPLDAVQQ

As for “IGPNPKNN [library array peptide, tested lactam constrained and linear]”, in experiment [1], the “Ferredoxin Lactam, log 10 transformed median intensity” value is listed as 2.56 and the “Ferredoxin Linear, log 10 transformed median intensity” value came to 2.59. In experiment [2], the “Diaphorase Lactam, log 10 transformed median intensity” value is 4.34 and the “Diaphorase Linear, log 10 transformed median intensity” value was determined as 4.22. In addition, in experiment [3], the “Streptavidin Lactam, log 10 transformed median intensity” value came out at 2.52 and the “Streptavidin Linear, log 10 transformed median intensity” value was found to be 2.52. In addition, in experiment [4], the “NISC Lactam, log 10 transformed median intensity” value worked out at 2.65 and the “NISC Linear, log 10 transformed median intensity” value was 2.78. Further, in experiment [5], the “FNR Lactam, log 10 transformed median intensity” value turned out to be 2.54 and the “FNR Linear, log 10 transformed median intensity” value was determined as 2.57.

For “PFSGQPNS [library array peptide, tested lactam constrained and linear]”, in experiment [1], the “Ferredoxin Lactam, log 10 transformed median intensity” value came to 2.59 and the “Ferredoxin Linear, log 10 transformed median intensity” value is reported as 2.59. In experiment [2], the “Diaphorase Lactam, log 10 transformed median intensity” value is given as 4.38 and the “Diaphorase Linear, log 10 transformed median intensity” value was found to be 3.70. For the same substance, in experiment [3], the “Streptavidin Lactam, log 10 transformed median intensity” value is given as 2.57 and the “Streptavidin Linear, log 10 transformed median intensity” value turned out to be 2.56. In experiment [4], the “NISC Lactam, log 10 transformed median intensity” value is given as 2.67 and the “NISC Linear, log 10 transformed median intensity” value came to 2.63. In experiment [5], the “FNR Lactam, log 10 transformed median intensity” value is given as 2.58 and the “FNR Linear, log 10 transformed median intensity” value is listed as 2.58.

Turning to “PGKPNTQ [library array peptide, tested lactam constrained and linear]”, in experiment [1], the “Ferredoxin Lactam, log 10 transformed median intensity” value is on record as 2.55 and the “Ferredoxin Linear, log 10 transformed median intensity” value was found to be 2.63. In experiment [2], the “Diaphorase Lactam, log 10 transformed median intensity” value turned out to be 4.36 and the “Diaphorase Linear, log 10 transformed median intensity” value is listed as 4.15. Moreover, in experiment [3], the “Streptavidin Lactam, log 10 transformed median intensity” value came out at 2.51 and the “Streptavidin Linear, log 10 transformed median intensity” value is 2.53. In experiment [4], the “NISC Lactam, log 10 transformed median intensity” value came out at 2.68 and the “NISC Linear, log 10 transformed median intensity” value is listed as 2.84. Also, in experiment [5], the “FNR Lactam, log 10 transformed median intensity” value was 2.54 and the “FNR Linear, log 10 transformed median intensity” value is given as 2.7.

On to “PNYSSAP [library array peptide, tested lactam constrained and linear]”, for which, in experiment [1], the “Ferredoxin Lactam, log 10 transformed median intensity” value is recorded as 2.56 and the “Ferredoxin Linear, log 10 transformed median intensity” value is reported as 2.55. Further, in experiment [2], the “Diaphorase Lactam, log 10 transformed median intensity” value came out at 4.31 and the “Diaphorase Linear, log 10 transformed median intensity” value came out at 3.91. In addition, in experiment [3], the “Streptavidin Lactam, log 10 transformed median intensity” value was 2.52 and the “Streptavidin Linear, log 10 transformed median intensity” value was found to be 2.52. Also, in experiment [4], the “NISC Lactam, log 10 transformed median intensity” value turned out to be 2.63 and the “NISC Linear, log 10 transformed median intensity” value was 2.61. Further, in experiment [5], the “FNR Lactam, log 10 transformed median intensity” value came out at 2.56 and the “FNR Linear, log 10 transformed median intensity” value was determined as 2.54.

In the case of “PPYPNQYQ [library array peptide, tested lactam constrained and linear]”, in experiment [1], the “Ferredoxin Lactam, log 10 transformed median intensity” value was 2.58 and the “Ferredoxin Linear, log 10 transformed median intensity” value is 2.58. Moreover, in experiment [2], the “Diaphorase Lactam, log 10 transformed median intensity” value is listed as 4.39 and the “Diaphorase Linear, log 10 transformed median intensity” value was determined as 4.04. Besides, in experiment [3], the “Streptavidin Lactam, log 10 transformed median intensity” value worked out at 2.53 and the “Streptavidin Linear, log 10 transformed median intensity” value is given as 2.53. Further, in experiment [4], the “NISC Lactam, log 10 transformed median intensity” value is on record as 2.69 and the “NISC Linear, log 10 transformed median intensity” value was 2.69. In experiment [5], the “FNR Lactam, log 10 transformed median intensity” value came out at 2.55 and the “FNR Linear, log 10 transformed median intensity” value came to 2.56.
